Source: patent US8853412B2, “Pyrrolidinone derivatives as GPR119 modulators for the treatment of diabetes, obesity, dyslipidemia and related disorders” (Sanofi, priority 2012, dated 2014)

Molecular target: T1, human GPR119 (Homo sapiens, UniProt Q8TDV5)
T1 construct: expressed in transfected cells; host or cells: HEK-293 cell line stably expressing recombinant GPR119
T1 sequence (Q8TDV5 1-335): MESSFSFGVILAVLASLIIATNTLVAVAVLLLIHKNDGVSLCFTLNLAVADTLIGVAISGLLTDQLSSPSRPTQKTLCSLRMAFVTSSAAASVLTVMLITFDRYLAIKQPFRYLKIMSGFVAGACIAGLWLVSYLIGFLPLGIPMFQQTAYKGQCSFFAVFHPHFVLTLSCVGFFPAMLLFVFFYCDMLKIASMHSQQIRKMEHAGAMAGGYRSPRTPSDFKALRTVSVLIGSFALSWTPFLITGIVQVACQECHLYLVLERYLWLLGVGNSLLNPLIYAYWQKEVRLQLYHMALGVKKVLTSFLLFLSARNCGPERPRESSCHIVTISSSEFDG
Assay: Functional cellular assay measuring GPR119-mediated cAMP release (HTRF), HEK-293 cells stably expressing recombinant GPR119
Assay type: cell-based
Details: cell line expressing human GPR119; cAMP response, 30 minutes at room temperature
Description: Functional Cellular Assays Measuring GPR119-Mediated cAMP Release.
Compounds of the invention, which are agonists of GPR119, were characterized by functional assays measuring the cAMP response of HEK-293 cell lines stably expressing recombinant GPR119 from man, mouse or rat, or by using a hamster cell line HIT-T15 expressing GPR119 endogenously. The cAMP content was determined using a kit based on homogenous time-resolved fluorescence (HTRF) from Cisbio Corp. (cat. no. 62AM4PEC). For preparation, cells were split into T175 culture flasks and grown to near confluency in medium (DMEM/10% FCS for HEK-293 cells, and F-12K medium/10% horse serum/2.5% FCS for HIT-T15 cells, respectively). Medium was then removed and cells washed with PBS lacking calcium and magnesium ions, followed by proteinase treatment with accutase (Sigma-Aldrich, cat. no. A6964). Detached cells were washed and resuspended in assay buffer (1×HBSS; 20 mM HEPES, 0.1% BSA, 2 mM IBMX) and cellular density determined. They were then diluted to 400000 cells/mL and 25 μL-aliquots dispensed to the wells of 96-well plates. For measurement, 25 μL of test compound in assay buffer was added and incubated for 30 minutes at room temperature. After addition of HTRF reagents diluted in lysis buffer, the plates were incubated for 1 hour, followed by measuring the fluorescence ratio at 665 vs. 620 nm. Potency of the agonists was quantified by determining the concentrations that caused 50% of the maximal response/activation (EC50). See Table 10 for exemplary data obtained using the cell line expressing human GPR119.

Structure (SMILES)	EC50 [nM]
CC1(COc2ccc(O[C@@H]3CCN(c4cc(F)c5c(c4)C(=O)CC5)C3=O)cn2)COC1 [Example 2-12]	99
CC(C)CC(C)Oc1ccc(O[C@@H]2CCN(c3cc(F)c4c(c3)C(=O)CC4)C2=O)cn1 (stereo partly drawn) [Example 2-45]	25
O=C1CCc2c(F)cc(N3CC[C@@H](Oc4ccc(OCC5COCO5)nc4)C3=O)cc21 (stereo partly drawn) [Example 2-32]	103
O=C1CC[C@@H](COc2ccc(O[C@@H]3CCN(c4cc(F)c5c(c4)C(=O)CC5)C3=O)cn2)N1 [Example 2-30]	16300
O=C1CCc2c(F)cc(N3CC[C@@H](Oc4ccc(OC5CCOCC5)nc4)C3=O)cc21 [Example 2-07, (R)-1-(7-Fluoro-3-oxo-indan-5-yl)-3-[6-(tetrahydro-pyran-4-yloxy)-pyridin-3-yloxy]-pyrrolidin-2-one]	45
O=C1CCc2c(F)cc(N3CC[C@@H](Oc4ccc(OCC5CC5)nc4)C3=O)c(F)c21 [Example 9-01]	19
O=C(O)c1cc(O[C@@H]2CCN(c3cc(F)c4c(c3)C(=O)CC4)C2=O)cnc1OCC1CC1 [Example 8-02]	2690
O=C1CCc2c(F)cc(N3CC[C@@H](Oc4ccc(OCC5CCOC5)nc4)C3=O)cc21 (stereo partly drawn) [Example 2-75]	95
O=C1CCc2ccc(N3CC[C@@H](Oc4ccc(OCC5CC5)nc4)C3=O)c(F)c21 [Example 9-03]	46
CN1CCC[C@H]1COc1ccc(O[C@@H]2CCN(c3cc(F)c4c(c3)C(=O)CC4)C2=O)cn1 [Example 2-59]	2220
O=C1CCc2c(F)cc(N3CC[C@@H](Oc4ccc(OCC5CCCCO5)nc4)C3=O)cc21 (stereo partly drawn) [Example 2-54]	154
O=C1CCc2c(F)cc(N3CC[C@@H](Oc4ccc(OCCOCCO)nc4)C3=O)cc21 [Example 2-15]	289
CCOCC(C)Oc1ccc(O[C@@H]2CCN(c3cc(F)c4c(c3)C(=O)CC4)C2=O)cn1 (stereo partly drawn) [Example 2-51]	77
O=C1CCc2c(F)cc(N3CC[C@@H](Oc4ccc(O[C@H]5CCOC5)nc4)C3=O)cc21 [Example 2-68]	90
CCOc1ncc(O[C@@H]2CCN(c3cc(F)c4c(c3)C(=O)CC4)C2=O)cc1F [Example 3-18]	45
O=C1CCc2c(F)cc(N3CC[C@@H](Oc4ccc(OCCN5CCCC5=O)nc4)C3=O)cc21 [Example 2-56]	9300
O=C1CCc2c(F)cc(N3CC[C@@H](Oc4ccc(OC5CCCOC5)nc4)C3=O)cc21 (stereo partly drawn) [Example 2-11]	29
CCCC[S+]([O-])c1ccc(O[C@@H]2CCN(c3cc(F)c4c(c3)C(=O)CC4)C2=O)cn1 (stereo partly drawn) [Example 3-08]	558
CC(C)=CCOc1ccc(O[C@@H]2CCN(c3cc(F)c4c(c3)C(=O)CC4)C2=O)cn1 [Example 2-20]	33
O=C1CCc2c(F)cc(N3CC[C@@H](Oc4ccnc(OCC5CC5)c4)C3=O)cc21 [Example 5-03]	40
CCCc1cc(O[C@@H]2CCN(c3cc(F)c4c(c3)C(=O)CC4)C2=O)cnc1OCC1CC1 [Example 8-04]	109

Structure (SMILES)	EC50 [nM]
O=C1CCc2ccc(N3CCC(Oc4ccc(Oc5ccc(F)cc5)cc4)C3=O)cc21 (stereo not drawn) [Example 1-02]	895
O=C1CCc2c(F)cc(N3CC[C@@H](Oc4ccc(OCC5CCCC5)nc4)C3=O)cc21 [Example 2-57]	9
O=C1CCc2c(F)cc(N3CC[C@@H](Oc4ccc(C(=O)N5CCCC5)nc4)C3=O)cc21 [Example 3-05]	3180
Cc1c(N2CC[C@@H](Oc3ccc(OCC4CC4)nc3)C2=O)cc(F)c2c1C(=O)CC2 [Example 1-19]	692
CCC(C)CCOc1ccc(O[C@@H]2CCN(c3cc(F)c4c(c3)C(=O)CC4)C2=O)cn1 (stereo partly drawn) [Example 2-34]	23
COC(C)(C)CCOc1ccc(O[C@@H]2CCN(c3cc(F)c4c(c3)C(=O)CC4)C2=O)cn1 [Example 2-62]	68
O=C1CCc2c(F)cc(N3CC[C@@H](Oc4ccc(OC[C@H]5CCCO5)nc4)C3=O)cc21 [Example 2-74]	84
Cn1ccnc1COc1ccc(O[C@@H]2CCN(c3cc(F)c4c(c3)C(=O)CC4)C2=O)cn1 [Example 2-37]	24300
O=C1CCc2c(F)cc(N3CC[C@@H](Oc4ccc(OC5CCOC5)nc4)C3=O)cc21 (stereo partly drawn) [Example 2-03]	63
O=C1CCc2ccc(N3CC[C@@H](Oc4ccc(OC5CC5)nc4)C3=O)cc21 [Example 1-20]	87
CCC(COC)Oc1ccc(O[C@@H]2CCN(c3cc(F)c4c(c3)C(=O)CC4)C2=O)cn1 (stereo partly drawn) [Example 2-47]	138
O=C1CC[C@H](COc2ccc(O[C@@H]3CCN(c4cc(F)c5c(c4)C(=O)CC5)C3=O)cn2)N1 [Example 2-29]	11600
CCOCCOc1ccc(O[C@@H]2CCN(c3cc(F)c4c(c3)C(=O)CC4)C2=O)cn1 [Example 2-27]	277
CCC(Oc1ccc(O[C@@H]2CCN(c3cc(F)c4c(c3)C(=O)CC4)C2=O)cn1)C(C)C (stereo partly drawn) [Example 2-49]	94
CC(C)CCOc1ccc(OC2CCN(c3ccc4c(c3)C(=O)CC4)C2=O)cc1 (stereo not drawn) [Example 1-01]	385
CCOC(=O)COc1ccc(O[C@@H]2CCN(c3cc(F)c4c(c3)C(=O)CC4)C2=O)cn1 [Example 2-43]	62
O=C1CCc2c(F)cc(N3CC[C@@H](Oc4ccc(OC5CCCOC5)nc4)C3=O)cc21 (stereo partly drawn) [Example 2-78]	33
O=C1CCc2c(Br)cc(N3CC[C@@H](Oc4ccc(OCC5CC5)nc4)C3=O)cc21 [Example 1-18]	287
O=C1CCc2c(F)cc(N3CC[C@@H](Oc4ccc(OCC5CCCOC5)nc4)C3=O)cc21 (stereo partly drawn) [Example 2-73]	159
O=C1CCc2c(F)cc(N3CC[C@@H](Oc4ccnc(OCCC5CC5)c4)C3=O)cc21 [Example 5-01]	22

The remaining lines, values ahead:

EC50 [nM]	Structure (SMILES)
19	O=C1CCc2c(F)cc(N3CC[C@@H](Oc4ccc(OC5CC5)nc4)C3=O)cc21 [Example 3-13, (R)-3-(6-Cyclopropoxy-pyridin-3-yloxy)-1-(7-fluoro-3-oxo-indan-5-yl)-pyrrolidin-2-one]
26	O=C1CCc2c(F)cc(N3CC[C@@H](Oc4ccc(OCC(F)F)nc4)C3=O)cc21 [Example 2-35]
37	CC(C)C(C)Oc1ccc(O[C@@H]2CCN(c3cc(F)c4c(c3)C(=O)CC4)C2=O)cn1 (stereo partly drawn) [Example 2-46]
5	CCC(C)COc1ccc(O[C@@H]2CCN(c3cc(F)c4c(c3)C(=O)CC4)C2=O)cn1 (stereo partly drawn) [Example 2-10]
11	CC1(COc2ccc(O[C@@H]3CCN(c4cc(F)c5c(c4)C(=O)CC5)C3=O)cn2)CC1 [Example 2-60]
103	CSCCCOc1ccc(O[C@@H]2CCN(c3cc(F)c4c(c3)C(=O)CC4)C2=O)cn1 [Example 2-40]
18	CCCC(C)Oc1ccc(O[C@@H]2CCN(c3cc(F)c4c(c3)C(=O)CC4)C2=O)cn1 (stereo partly drawn) [Example 2-06]
87	O=C1CCc2c(F)cc(N3CC[C@@H](Oc4ccc(Oc5ccc(F)cc5)nc4)C3=O)cc21 [Example 1-07]
216	O=C1CCc2c(F)cc(N3CC[C@@H](Oc4ccc(Oc5ccc(F)cn5)nc4)C3=O)cc21 [Example 6-01]
18	O=C1CCc2c(F)cc(N3CC[C@@H](Oc4ccc(OCCC(F)(F)F)nc4)C3=O)cc21 [Example 2-39]
45	O=C1CCc2c(F)cc(N3CC[C@@H](Oc4ccc(OCCC5CC5)cc4)C3=O)cc21 [Example 1-05]
54	CCC(CC)Oc1ccc(O[C@@H]2CCN(c3cc(F)c4c(c3)C(=O)CC4)C2=O)cn1 [Example 2-64]
8	O=C1CCc2c(F)cc(N3CC[C@@H](Oc4ccc(OCC5CC5)nc4)C3=O)cc21 [Example 1-11, (R)-3-(6-Cyclopropylmethoxy-pyridin-3-yloxy)-1-(7-fluoro-3-oxo-indan-5-yl)-pyrrolidin-2-one]
1310	O=C1CCc2c(F)cc(N3CC[C@@H](Oc4ccc(OCCCO)nc4)C3=O)cc21 [Example 2-42]
5590	O=C1CCc2c(F)cc(N3CC[C@@H](Oc4ccc(OCC5CC5)[n+]([O-])c4)C3=O)cc21 [Example 7-01]
86	O=C1CCc2c(F)cc(N3CC[C@@H](Oc4ccc(OC(F)(F)F)cc4)C3=O)cc21 [Example 3-01]
29	CO[C@@H](C)COc1ccc(O[C@@H]2CCN(c3cc(F)c4c(c3)C(=O)CC4)C2=O)cn1 [Example 2-69]
17	CCOc1ccc(O[C@@H]2CCN(c3cc(F)c4c(c3)C(=O)CC4)C2=O)cn1 [Example 2-08, (R)-3-(6-Ethoxy-pyridin-3-yloxy)-1-(7-fluoro-3-oxo-indan-5-yl)-pyrrolidin-2-one]
64	O=C1CCc2c(F)cc(N3CC[C@@H](Oc4ccc(OCCF)nc4)C3=O)cc21 [Example 2-48]
